Source: EP0831093A1, “1-Carba-(dethia)-Cephalosporin Derivatives” (F. HOFFMANN-LA ROCHE AG, priority 1996, dated 1998)
In brackets after ≈: the same amount, converted by molar mass. Where a name gives a salt, the structure may show the parent alone. Read-outs that look alike come from different tables or passages of the source.

What was measured:
Test in all cases: MIC, agar dilution method in Mueller Hinton agar
Assay type in all cases: cell-based
E.coli 25922 = conditions: Escherichia coli
Method: (§1) In vitro activity was determined by minimum inhibitory concentration in a microorganism spectum by the agar dilution method in Mueller Hinton agar, inoculum = 10^4 CFU/spot.

C.freundii 43 = conditions: Citrobacter freundii
Method: as §1

C.freundii 902 = conditions: Citrobacter freundii
Method: as §1

S.pyogenes b 15 = conditions: Streptococcus pyogenes
Method: as §1

S.aureus 6538 = conditions: Staphylococcus aureus
Method: as §1

P.aeruginosa ATCC27853 = conditions: Pseudomonas aeruginosa
Method: as §1

E.cloacae 908SSi = conditions: Enterobacter cloacae
Method: as §1

S.pneumoniae. 907 = conditions: Streptococcus pneumoniae
Method: as §1

E.coli TEM1 = conditions: Escherichia coli
Method: as §1

E.faecalis 6 = conditions: Enterococcus faecalis
Method: as §1

E.cloacae 908R = conditions: Enterobacter cloacae
Method: as §1

S.aureus 743 (MRSA) = conditions: Staphylococcus aureus
Method: as §1

S.marcescens 69438 = conditions: Serratia marcescens
Method: as §1

P.mirabilis 2117 = conditions: Proteus mirabilis
Method: as §1

K.pneumoniae 418 = conditions: Klebsiella pneumoniae
Method: as §1

P.vulgaris 1028 = conditions: Proteus vulgaris
Method: as §1

[1] = E.coli 25922, inoculum = 10^4 CFU/spot, read-out: MIC
[2] = C.freundii 43, inoculum = 10^4 CFU/spot, read-out: MIC
[3] = C.freundii 902, inoculum = 10^4 CFU/spot, read-out: MIC
[4] = S.pyogenes b 15, inoculum = 10^4 CFU/spot, read-out: MIC
[5] = S.aureus 6538, inoculum = 10^4 CFU/spot, read-out: MIC
[6] = P.aeruginosa ATCC27853, inoculum = 10^4 CFU/spot, read-out: MIC
[7] = E.cloacae 908SSi, inoculum = 10^4 CFU/spot, read-out: MIC
[8] = S.pneumoniae. 907, inoculum = 10^4 CFU/spot, read-out: MIC
[9] = E.faecalis 6, inoculum = 10^4 CFU/spot, read-out: MIC
[10] = E.cloacae 908R, inoculum = 10^4 CFU/spot, read-out: MIC
[11] = S.aureus 743 (MRSA), inoculum = 10^4 CFU/spot, read-out: MIC
[12] = S.marcescens 69438, inoculum = 10^4 CFU/spot, read-out: MIC
[13] = P.mirabilis 2117, inoculum = 10^4 CFU/spot, read-out: MIC
[14] = K.pneumoniae 418, inoculum = 10^4 CFU/spot, read-out: MIC
[15] = P.vulgaris 1028, inoculum = 10^4 CFU/spot, read-out: MIC

SMILES | MIC (E.coli 25922; [1]) | MIC (C.freundii 43; [2]) | MIC (C.freundii 902; [3]) | MIC (S.pyogenes b 15; [4]) | MIC (S.aureus 6538; [5]) | MIC (P.aeruginosa ATCC27853; [6]) | MIC (E.cloacae 908SSi; [7]) | MIC (S.pneumoniae. 907; [8]) | MIC (E.coli TEM1) | MIC (E.faecalis 6; [9]) | MIC (E.cloacae 908R; [10]) | MIC (S.aureus 743 (MRSA); [11]) | MIC (S.marcescens 69438; [12]) | MIC (P.mirabilis 2117; [13]) | MIC (K.pneumoniae 418; [14]) | MIC (P.vulgaris 1028; [15]) | also measured
C[n+]1cccc(N2CC/C(=C\C3=C(C(=O)[O-])N4C(=O)[C@@H](NC(=O)/C(=N\O)c5csc(N)n5)[C@H]4CC3)C2=O)c1 [C, (6R,7S)-7-[(Z)-2-(2-Amino-thiazol-4-yl)-2-hydroxyimino-acetylamino]-3-[(E)-1-(1-methyl-pyridin-1-ium-3-yl)-2-oxo-pyrrolidin-3-ylidenemethyl]-8-oxo-1-aza-bicyclo[4.2.0]oct-2-ene-2-carboxylate] | ≤ 0.06 µg/mL | 0.5 µg/mL (≈ 0.93 µM) | ≤ 0.06 µg/mL | ≤ 0.06 µg/mL | 1 µg/mL (≈ 1.86 µM) | 4 µg/mL (≈ 7.44 µM) | ≤ 0.06 µg/mL | ≤ 0.06 µg/mL | ≤ 0.06 µg/mL | 0.5 µg/mL (≈ 0.93 µM) | 2 µg/mL (≈ 3.72 µM) | 8 µg/mL (≈ 14.9 µM) | 0.12 µg/mL (≈ 0.223 µM) | ≤ 0.06 µg/mL | ≤ 0.06 µg/mL | 16 µg/mL (≈ 29.8 µM) | 
C[n+]1cccc(N2CC/C(=C\C3=C(C(=O)[O-])N4C(=O)[C@@H](NC(=O)/C(=N\OCC(=O)O)c5csc(N)n5)[C@H]4CC3)C2=O)c1 [F, (6R,7S)-7-[(Z)-2-(2-Amino-thiazol-4-yl)-2-carboxymethoxyimino-acetylamino]-3-[(E)-1-(1-methyl-pyridin-1-ium-3-yl)-2-oxo-pyrrolidin-3-ylidenemethyl]-8-oxo-1-aza-bicyclo[4.2.0]oct-2-ene-2-carboxylate Na salt (1:1)] | ≤ 0.06 µg/mL | 2 µg/mL | ≤ 0.06 µg/mL | 0.12 µg/mL | 32 µg/mL | 1 µg/mL | ≤ 0.06 µg/mL | ≤ 0.06 µg/mL | ≤ 0.06 µg/mL | > 32 µg/mL | 4 µg/mL | > 32 µg/mL | ≤ 0.06 µg/mL | ≤ 0.06 µg/mL | ≤ 0.06 µg/mL | 0.12 µg/mL | 
Nc1nc(/C(=N/O)C(=O)N[C@@H]2C(=O)N3C(C(=O)O)=C(/C=C4\CCN(c5ccc(O)cc5)C4=O)CC[C@H]23)cs1 [B, (6R,7S)-7-[(Z)-2-(Amino-thiazol-4-yl)-2-hydroxyimino-acetylamino]-3-[(E)-1-(4-hydroxy-phenyl)-2-oxo-pyrrolidin-3-ylidenemethyl]-8-oxo-1-aza-bicyclo[4.2.0]oct-2-ene-2-carboxylic acid sodium salt (1:1)] | 0.25 µg/mL | 32 µg/mL | 0.5 µg/mL | ≤ 0.06 µg/mL | 1 µg/mL | 32 µg/mL | 0.5 µg/mL | ≤ 0.06 µg/mL | 0.12 µg/mL | 4 µg/mL | > 32 µg/mL | 32 µg/mL | 4 µg/mL |  | 0.12 µg/mL | > 32 µg/mL | 
C[n+]1cccc(N2CC/C(=C\C3=C(C(=O)[O-])N4C(=O)[C@@H](NC(=O)/C(=N\OC5CCCC5)c5nsc(N)n5)[C@H]4CC3)C2=O)c1 [E, (6R,7S)-7-[(Z)-2-(5-Amino-[1,2,4]thiadiazol-3-yl)-cyclopentyloximino-acetylamino]-3-[(E)-1-(1-methyl-pyridin-1-ium-3-yl)-2-oxo-pyrroliden-3-ylidenemethyl]-8-oxo-1-aza-bicyclo[4.2.0]oct-2-ene-2-carboxylate] | ≤ 0.06 µg/mL | 0.5 µg/mL (≈ 0.824 µM) | ≤ 0.06 µg/mL | ≤ 0.06 µg/mL | 0.5 µg/mL (≈ 0.824 µM) | 8 µg/mL (≈ 13.2 µM) | ≤ 0.06 µg/mL | ≤ 0.06 µg/mL | 1 µg/mL (≈ 1.65 µM) | 1 µg/mL (≈ 1.65 µM) | 0.5 µg/mL (≈ 0.824 µM) | 4 µg/mL (≈ 6.59 µM) | 1 µg/mL (≈ 1.65 µM) | 2 µg/mL (≈ 3.3 µM) | 0.25 µg/mL (≈ 0.412 µM) | 32 µg/mL (≈ 52.7 µM) | 
C[n+]1ccc(N2CC/C(=C\C3=C(C(=O)[O-])N4C(=O)[C@@H](NC(=O)/C(=N\OC5CCCC5)c5csc(N)n5)[C@H]4CC3)C2=O)cc1 [G, (6R,7S)-7-[(Z)-2-(2-Amino-thiazol-4-yl)-2-cyclopentyloxyimino-acetylamino]-3-[(E)-1-(1-methyl-pyridin-1-ium-4-yl)-2-oxo-pyrrolidin-3-ylidenemethyl]-8-oxo-1-aza-bicyclo[4.2.0]oct-2-ene-2-carboxylate] | ≤ 0.06 µg/mL | 1 µg/mL (≈ 1.65 µM) | ≤ 0.06 µg/mL | ≤ 0.06 µg/mL | 2 µg/mL (≈ 3.3 µM) | 4 µg/mL (≈ 6.6 µM) | ≤ 0.06 µg/mL | ≤ 0.06 µg/mL | 0.5 µg/mL (≈ 0.826 µM) | 1 µg/mL (≈ 1.65 µM) | 2 µg/mL (≈ 3.3 µM) | 32 µg/mL (≈ 52.8 µM) | 0.5 µg/mL (≈ 0.826 µM) | 1 µg/mL (≈ 1.65 µM) | 0.25 µg/mL (≈ 0.413 µM) | 16 µg/mL (≈ 26.4 µM) | 
Nc1nc(/C(=N/O)C(=O)N[C@@H]2C(=O)N3C(C(=O)[O-])=C(/C=C4\CCN(CC(F)(F)F)C4=O)CC[C@H]23)cs1.[Na+] [A, (6R,7S)-7-[(Z)-2-(2-Amino-thiazol-4-yl)-2-hydroxyimino-acetylamino]-8-oxo-3-[(E)-2-oxo-1-(2,2,2-trifluoro-ethyl)-pyrrolidin-3-ylidenemethyl]-1-aza-bicyclo[4.2.0]oct-2-ene-2-carboxylic acid sodium salt (1:1)] |  |  |  |  |  |  |  |  | 0.12 µg/mL |  |  |  |  |  |  |  | MIC (E.coli 25922; 25922): ≤ 0.06 µg/mL; MIC (C.freundii 43; 43): 8 µg/mL; MIC (C.freundii 902; 902): 0.25 µg/mL; MIC (S.pyogenes b 15; 15): ≤ 0.06 µg/mL; MIC (S.aureus 6538; 6538): 1 µg/mL; MIC (P.aeruginosa ATCC27853; ATCC27853): 32 µg/mL; MIC (E.cloacae 908SSi; 908SSI): 2 µg/mL; MIC (S.pneumoniae. 907): ≤ 0.06 µg/mL; MIC (E.faecalis 6; 6): 8 µg/mL; MIC (E.cloacae 908R; 908R): > 32 µg/mL; MIC (S.aureus 743 (MRSA); MRSA): 32 µg/mL; MIC (S.marcescens 69438; 69438): 2 µg/mL; MIC (P.mirabilis 2117; 2117): ≤ 0.06 µg/mL; MIC (K.pneumoniae 418; 418): 0.12 µg/mL; MIC (P.vulgaris 1028; 1028): > 32 µg/mL
C[n+]1cccc(N2CC/C(=C\C3=C(C(=O)[O-])N4C(=O)[C@@H](NC(=O)/C(=N\O)c5nsc(N)n5)[C@H]4CC3)C2=O)c1 [D, (6R,7S)-7-[(Z)-2-(5-Amino-[1,2,4]thiadiazol-3-yl)-hydroxyimino-acetylamino]-3-[(E)-1-(1-methyl-pyridin-1-ium-3-yl)-2-oxo-pyrrolidin-3-ylidenemethyl]-8-oxo-1-aza-bicyclo[4.2.0]oct-2-ene-2-carboxylate] | 0.06 µg/mL (≈ 0.111 µM) | 0.5 µg/mL (≈ 0.928 µM) | ≤ 0.06 µg/mL | ≤ 0.06 µg/mL | 0.5 µg/mL (≈ 0.928 µM) | 8 µg/mL (≈ 14.9 µM) | 0.12 µg/mL (≈ 0.223 µM) | ≤ 0.06 µg/mL | 0.25 µg/mL (≈ 0.464 µM) | 0.25 µg/mL (≈ 0.464 µM) | 1 µg/mL (≈ 1.86 µM) | 8 µg/mL (≈ 14.9 µM) | 0.12 µg/mL (≈ 0.223 µM) | 0.12 µg/mL (≈ 0.223 µM) | ≤ 0.06 µg/mL | > 32 µg/mL | 
